Reference: patent publication US20260325533A1, “CDK INHIBITOR COMPOUNDS” (ALEKSIA THERAPEUTICS, INC., priority 2023, published 2026)
Like-named read-outs stand apart in the source and are kept apart here. Values belong to the compound of their own block, whether it stands above or below them.

Assays:
Format in all cases: biochemical
CDK4/CCND3 = CDK4/CCND3 (Homo sapiens, UniProt P11802); assay: CDK4 homogeneous time-resolved fluorescence (HTRF) kinase assay
Summary of the method: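 Inhibition of CDK4/CCND3 (1.5 nM) was measured at high ATP (1 mM) using 50 nM ULight-labelled 4E-BP1 Thr37/46 peptide; detection used 2 nM europium anti-phospho antibody after EDTA quench. IC50 values came from 11-point half-log titrations typically starting at 10 μM.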

CDK6/CCND1 = CDK6/CCND1 (Homo sapiens, UniProt Q00534); assay: CDK6 homogeneous time-resolved fluorescence (HTRF) kinase assay
CDK6/CCND1, sequence (Q00534 whole entry): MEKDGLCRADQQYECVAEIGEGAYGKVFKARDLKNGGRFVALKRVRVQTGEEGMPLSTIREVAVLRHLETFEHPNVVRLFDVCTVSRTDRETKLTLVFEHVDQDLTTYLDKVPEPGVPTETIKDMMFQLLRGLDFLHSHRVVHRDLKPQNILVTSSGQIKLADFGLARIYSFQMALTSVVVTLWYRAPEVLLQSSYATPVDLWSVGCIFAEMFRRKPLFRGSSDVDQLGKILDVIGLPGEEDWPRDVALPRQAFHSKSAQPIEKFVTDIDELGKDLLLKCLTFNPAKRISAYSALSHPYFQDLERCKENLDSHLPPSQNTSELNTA
CDK6/CCND1, sequence (P24385 whole entry partner): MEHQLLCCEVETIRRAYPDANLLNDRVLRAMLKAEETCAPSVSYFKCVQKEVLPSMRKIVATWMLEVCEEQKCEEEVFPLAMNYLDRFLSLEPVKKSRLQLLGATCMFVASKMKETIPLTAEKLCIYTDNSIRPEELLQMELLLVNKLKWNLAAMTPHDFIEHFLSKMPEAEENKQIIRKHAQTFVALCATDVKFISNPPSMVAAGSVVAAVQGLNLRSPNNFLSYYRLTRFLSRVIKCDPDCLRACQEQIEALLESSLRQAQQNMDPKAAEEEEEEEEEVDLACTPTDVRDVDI
Summary of the method: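 1 nM enzyme, 1 mM ATP, 50 nM ULight-4E-BP1 (Thr37/46) peptide, 1% DMSO; 20 min compound preincubation, 60 min reaction, 23 °C. EDTA stop, 2 nM Eu-anti-phospho-4E-BP1 antibody 60 min. TR-FRET 665 nm (or 665/615 ratio); IC50 from 11-point half-log titration, top 10 μM.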

CDK1/CCNB1 = CDK1/CCNB1 (Homo sapiens, UniProt P06493); assay: CDK1 homogeneous time-resolved fluorescence (HTRF) kinase assay
CDK1/CCNB1, sequence (P06493 whole entry): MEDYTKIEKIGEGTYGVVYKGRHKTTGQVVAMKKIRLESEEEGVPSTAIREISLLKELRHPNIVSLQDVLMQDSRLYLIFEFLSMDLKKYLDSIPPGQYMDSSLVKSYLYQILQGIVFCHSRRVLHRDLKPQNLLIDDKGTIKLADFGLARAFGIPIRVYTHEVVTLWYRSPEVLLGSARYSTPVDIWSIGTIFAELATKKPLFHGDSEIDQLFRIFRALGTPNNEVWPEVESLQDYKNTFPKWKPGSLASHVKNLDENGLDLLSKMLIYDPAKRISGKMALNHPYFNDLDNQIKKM
CDK1/CCNB1, sequence (P14635 whole entry partner): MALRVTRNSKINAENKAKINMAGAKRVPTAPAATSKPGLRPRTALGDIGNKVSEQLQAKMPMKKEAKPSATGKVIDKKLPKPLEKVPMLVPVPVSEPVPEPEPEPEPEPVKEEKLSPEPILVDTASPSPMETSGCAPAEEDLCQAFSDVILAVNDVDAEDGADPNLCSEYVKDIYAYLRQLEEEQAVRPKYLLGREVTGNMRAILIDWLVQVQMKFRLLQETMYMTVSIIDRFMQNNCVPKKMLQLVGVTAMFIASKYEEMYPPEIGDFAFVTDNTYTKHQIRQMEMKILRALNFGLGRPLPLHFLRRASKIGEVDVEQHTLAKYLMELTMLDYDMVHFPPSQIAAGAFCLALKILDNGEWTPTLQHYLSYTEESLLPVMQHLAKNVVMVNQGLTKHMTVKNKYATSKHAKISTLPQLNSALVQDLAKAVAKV
Summary of the method: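 Compounds, titrated 11 points in half-log steps typically from 10 μM, were incubated with enzyme for 20 min before ATP (1 mM) and ULight-labelled eIF4E-binding protein 1 peptide (50 nM) started a 60-min reaction at 23 °C. Phosphopeptide was detected by europium-antibody TR-FRET and IC50 values were derived.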

CDK2/CCNE1 = CDK2/CCNE1 (Homo sapiens, UniProt P24941); assay: CDK2 homogeneous time-resolved fluorescence (HTRF) kinase assay
Summary of the method: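 3 nM CDK2/CCNE1 was preincubated with compound for 20 min at 23 °C in HEPES buffer (pH not stated), then reacted 60 min with 1 mM ATP and 50 nM ULight-4E-BP1 (Thr37/46) peptide. After EDTA stop, Eu-anti-phospho-4E-BP1 antibody (2 nM) was added for 60 min and TR-FRET read at 665 nm.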

[1] = >250 nM, CDK4/CCND, read-out: CDK4/CCND IC50, >250 nM
[2] = >250 nM, CDK6/CCND, 1 mM ATP, read-out: CDK6/CCND IC50, >250 nM
[3] = >250 nM, CDK1/CCNB, read-out: CDK1/CCNB IC50 >250 nM
[4] = <25 nM, CDK2/CCNE, read-out: CDK2/CCNE IC50, <25 nM
[5] = 25-250 nM, CDK6/CCND, 1 mM ATP, read-out: CDK6/CCND IC50, 25-250 nM
[6] = CDK4/CCND, x = IC50 >250 nM, read-out: CDK4/CCND IC50 (>250 nM column)
[7] = CDK6/CCND, x = IC50 >250 nM, read-out: CDK6/CCND IC50 (>250 nM column)
[8] = CDK1/CCNB, x = IC50 >250 nM, read-out: CDK1/CCNB IC50 (>250 nM column)
[9] = CDK2/CCNE, x = IC50 <25 nM, read-out: CDK2/CCNE IC50 (<25 nM)
[10] = CDK4/CCND, >250 nM marked x, read-out: CDK4/CCND IC50 >250 nM
[11] = CDK6/CCND, >250 nM marked x, read-out: CDK6/CCND IC50 >250 nM
[12] = CDK1/CCNB, >250 nM marked x, read-out: CDK1/CCNB IC50 >250 nM
[13] = 25-250 nM, CDK2/CCNE, read-out: CDK2/CCNE IC50, 25-250 nM
[14] = CDK2/CCNE, x = IC50 25-250 nM, read-out: CDK2/CCNE IC50 (25-250 nM)
[15] = CDK2/CCNE, 25-250 nM marked x, read-out: CDK2/CCNE IC50 25-250 nM

CDK4/CCND3, sequence (P11802 whole entry): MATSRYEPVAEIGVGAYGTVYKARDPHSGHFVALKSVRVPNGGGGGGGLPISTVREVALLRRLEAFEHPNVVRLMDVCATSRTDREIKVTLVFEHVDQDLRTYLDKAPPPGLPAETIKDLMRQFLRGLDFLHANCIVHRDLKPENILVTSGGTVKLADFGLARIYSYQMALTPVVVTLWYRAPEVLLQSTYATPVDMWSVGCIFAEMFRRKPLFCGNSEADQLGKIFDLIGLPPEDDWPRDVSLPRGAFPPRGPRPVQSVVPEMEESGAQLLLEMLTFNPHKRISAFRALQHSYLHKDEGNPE
CDK4/CCND3, sequence (P30281 whole entry partner): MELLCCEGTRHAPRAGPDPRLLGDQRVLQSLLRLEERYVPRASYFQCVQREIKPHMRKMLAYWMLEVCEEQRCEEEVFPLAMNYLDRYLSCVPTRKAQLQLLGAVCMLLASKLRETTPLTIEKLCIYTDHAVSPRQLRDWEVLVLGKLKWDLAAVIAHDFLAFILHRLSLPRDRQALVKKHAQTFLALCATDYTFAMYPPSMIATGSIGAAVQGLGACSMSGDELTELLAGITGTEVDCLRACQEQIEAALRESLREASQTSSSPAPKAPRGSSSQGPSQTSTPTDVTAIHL

SMILES: CC1(C)C(=O)Nc2cc(C#Cc3nccc4cnc(Nc5ccc(S(C)(=O)=O)cc5C(F)F)cc34)ccc21 [Ex 312, 6-((7-((2-(difluoromethyl)-4-(methylsulfonyl)phenyl)amino)-2,6-naphthyridin-1-yl)ethynyl)-3,3-dimethylindolin-2-one]
- IC50 (CDK4/CCND3; [10]): > 250 nM
- IC50 (CDK6/CCND1; [11]): > 250 nM
- IC50 (CDK1/CCNB1; [12]): > 250 nM
- IC50 (CDK2/CCNE1; CDK2/CCNE, <25 nM, read-out: CDK2/CCNE IC50 <25 nM): < 25 nM

SMILES: CC(C)S(=N)(=O)c1ccc(Nc2cc3c(C#Cc4ccc5c(c4)NC(=O)C54CC4)nccc3cn2)cc1 (single isomer, unassigned) [Ex 354, 6'-((7-((4-(propan-2-ylsulfonimidoyl)phenyl)amino)-2,6-naphthyridin-1-yl)ethynyl)spiro[cyclopropane-1,3'-indolin]-2'-one]
- IC50 (CDK4/CCND3; CDK4/CCND, x = IC50 25-250 nM, read-out: CDK4/CCND IC50 (25-250 nM)): 25 to 250 nM
- IC50 (CDK6/CCND1; CDK6/CCND, x = IC50 25-250 nM, read-out: CDK6/CCND IC50 (25-250 nM)): 25 to 250 nM
- IC50 (CDK1/CCNB1; CDK1/CCNB, x = IC50 25-250 nM, read-out: CDK1/CCNB IC50 (25-250 nM)): 25 to 250 nM
- IC50 (CDK2/CCNE1; [9]): < 25 nM

SMILES: COc1cc(NS(=O)(=O)c2ccc(Nc3cc4c(-c5ccc6c(cnn6CC(C)(C)O)c5C)nccc4cn3)cc2)cc(OC)c1 [Ex 805, N-(3,5-dimethoxyphenyl)-4-((5-(1-(2-hydroxy-2-methylpropyl)-4-methyl-1H-indazol-5-yl)-2,6-naphthyridin-3-yl)amino)benzenesulfonamide]
- IC50 (CDK4/CCND3; [1]): > 250 nM
- IC50 (CDK6/CCND1; [2]): > 250 nM
- IC50 (CDK1/CCNB1; [3]): > 250 nM
- IC50 (CDK2/CCNE1; [4]): < 25 nM

SMILES: Cc1c(-c2nccc3cnc(Nc4ccc(S(C)(=O)=O)c(C(F)(F)F)c4)cc23)ccc2c1cnn2CC(C)(C)O [Ex 844, 2-methyl-1-(4-methyl-5-(7-((4-(methylsulfonyl)-3-(trifluoromethyl)phenyl)amino)-2,6-naphthyridin-1-yl)-1H-indazol-1-yl)propan-2-ol]
- IC50 (CDK4/CCND3; [1]): > 250 nM
- IC50 (CDK6/CCND1; [2]): > 250 nM
- IC50 (CDK1/CCNB1; [3]): > 250 nM
- IC50 (CDK2/CCNE1; [13]): 25 to 250 nM

SMILES: COc1ccc(C#Cc2nccc3cnc(Nc4ccc(S(C)(=O)=O)cc4)cc23)cc1F [Ex 499, 5-((3-fluoro-4-methoxyphenyl)ethynyl)-N-(4-(methylsulfonyl)phenyl)-2,6-naphthyridin-3-amine]
- IC50 (CDK4/CCND3; [6]): > 250 nM
- IC50 (CDK6/CCND1; [7]): > 250 nM
- IC50 (CDK1/CCNB1; [8]): > 250 nM
- IC50 (CDK2/CCNE1; [14]): 25 to 250 nM

SMILES: Cc1cnc(C#Cc2nccc3cnc(Nc4ccc(S(C)(=O)=O)cc4)cc23)cn1 [Ex 507, 5-((5-methylpyrazin-2-yl)ethynyl)-N-(4-(methylsulfonyl)phenyl)-2,6-naphthyridin-3-amine]
- IC50 (CDK4/CCND3; [6]): > 250 nM
- IC50 (CDK6/CCND1; [7]): > 250 nM
- IC50 (CDK1/CCNB1; [8]): > 250 nM
- IC50 (CDK2/CCNE1; CDK2/CCNE, x = IC50 >250 nM, read-out: CDK2/CCNE IC50 (>250 nM column)): > 250 nM

SMILES: C=CS(=O)(=O)c1ccc(Nc2cc3c(-c4cccc(COC)c4)nccc3cn2)cc1 [Ex 137, 5-(3-(methoxymethyl)phenyl)-N-(4-(vinylsulfonyl)phenyl)-2,6-naphthyridin-3-amine]
- IC50 (CDK4/CCND3; [10]): > 250 nM
- IC50 (CDK6/CCND1; [11]): > 250 nM
- IC50 (CDK1/CCNB1; [12]): > 250 nM
- IC50 (CDK2/CCNE1; [15]): 25 to 250 nM

SMILES: CS(=O)(=O)N1CCC(Nc2cc3c(N4CCC(F)(F)CC4)nccc3cn2)CC1 [Ex 47, 5-(4,4-difluoropiperidin-1-yl)-N-(1-(methylsulfonyl)piperidin-4-yl)-2,6-naphthyridin-3-amine]
- IC50 (CDK4/CCND3; CDK4/CCND, <25 nM, read-out: CDK4/CCND IC50 <25 nM): < 25 nM
- IC50 (CDK6/CCND1; CDK6/CCND, <25 nM, read-out: CDK6/CCND IC50 <25 nM): < 25 nM
- IC50 (CDK1/CCNB1; CDK1/CCNB, 25-250 nM marked x, read-out: CDK1/CCNB IC50 25-250 nM): 25 to 250 nM
- IC50 (CDK2/CCNE1; [15]): 25 to 250 nM

SMILES: CS(=O)(=O)c1ccc(Nc2cc3c(C#Cc4cncc(F)c4)nccc3cn2)cc1 [Ex 873, 5-((5-fluoropyridin-3-yl)ethynyl)-N-(4-(methylsulfonyl)phenyl)-2,6-naphthyridin-3-amine]
- IC50 (CDK4/CCND3; [1]): > 250 nM
- IC50 (CDK6/CCND1; [2]): > 250 nM
- IC50 (CDK1/CCNB1; [3]): > 250 nM
- IC50 (CDK2/CCNE1; [13]): 25 to 250 nM

SMILES: Cc1c(-c2nccc3cnc(Nc4ccc(S(=N)(=O)NC5CCC5)cc4)cc23)ccc2c1cnn2CC(O)(C(F)(F)F)C(F)(F)F (single isomer, unassigned) [Ex 680, N-cyclobutyl-4-((5-(4-methyl-1-(3,3,3-trifluoro-2-hydroxy-2-(trifluoromethyl)propyl)-1H-indazol-5-yl)-2,6-naphthyridin-3-yl)amino)benzenesulfonimidamide]
- IC50 (CDK4/CCND3; [1]): > 250 nM
- IC50 (CDK6/CCND1; [2]): > 250 nM
- IC50 (CDK1/CCNB1; [3]): > 250 nM
- IC50 (CDK2/CCNE1; [13]): 25 to 250 nM

Now from value to compound:

- IC50 (CDK4/CCND3; [1]): > 250 nM
- IC50 (CDK6/CCND1; [2]): > 250 nM
- IC50 (CDK1/CCNB1; [3]): > 250 nM
- IC50 (CDK2/CCNE1; [4]): < 25 nM
SMILES: Cc1c(-c2nccc3cnc(Nc4ccc(S(=O)(=O)Nc5nccc(N6CCN(C)CC6)n5)cc4)cc23)ccc2c1cnn2CC(C)(C)O [Ex 892, 4-((5-(1-(2-hydroxy-2-methylpropyl)-4-methyl-1H-indazol-5-yl)-2,6-naphthyridin-3-yl)amino)-N-(4-(4-methylpiperazin-1-yl)pyrimidin-2-yl)benzenesulfonamide]

- IC50 (CDK4/CCND3; 25-250 nM, CDK4/CCND, read-out: CDK4/CCND IC50, 25-250 nM): 25 to 250 nM
- IC50 (CDK6/CCND1; [5]): 25 to 250 nM
- IC50 (CDK1/CCNB1; [3]): > 250 nM
- IC50 (CDK2/CCNE1; [4]): < 25 nM
SMILES: Cc1ccnc(NS(=O)(=O)c2ccc(Nc3cc4c(-c5ccc6c(cnn6CC(C)(C)O)c5C)nccc4cn3)cc2)n1 [Ex 908, 4-((5-(1-(2-hydroxy-2-methylpropyl)-4-methyl-1H-indazol-5-yl)-2,6-naphthyridin-3-yl)amino)-N-(4-methylpyrimidin-2-yl)benzenesulfonamide]

- IC50 (CDK4/CCND3; [1]): > 250 nM
- IC50 (CDK6/CCND1; [5]): 25 to 250 nM
- IC50 (CDK1/CCNB1; [3]): > 250 nM
- IC50 (CDK2/CCNE1; [4]): < 25 nM
SMILES: Cc1c(-c2nccc3cnc(Nc4ccc(S(C)(=O)=O)cc4O)cc23)ccc2c1cnn2CC(C)(C)O [Example 784, 2-((5-(1-(2-hydroxy-2-methylpropyl)-4-methyl-1H-indazol-5-yl)-2,6-naphthyridin-3-yl)amino)-5-(methylsulfonyl)phenol]

- IC50 (CDK4/CCND3; [6]): > 250 nM
- IC50 (CDK6/CCND1; [7]): > 250 nM
- IC50 (CDK1/CCNB1; [8]): > 250 nM
- IC50 (CDK2/CCNE1; [9]): < 25 nM
SMILES: CS(=O)(=O)c1ccc(Nc2cc3c(C#Cc4ccc(CCC(=O)O)cc4)nccc3cn2)cc1 [Example 494, 3-(4-((7-((4-(methylsulfonyl)phenyl)amino)-2,6-naphthyridin-1-yl)ethynyl)phenyl)propanoic acid]

- IC50 (CDK4/CCND3; [6]): > 250 nM
- IC50 (CDK6/CCND1; [7]): > 250 nM
- IC50 (CDK1/CCNB1; [8]): > 250 nM
- IC50 (CDK2/CCNE1; [14]): 25 to 250 nM
SMILES: CS(=O)(=O)c1ccc(Nc2cc3c(C#Cc4n[nH]c(=O)c5ccccc45)nccc3cn2)cc1 [Example 495, 4-((7-((4-(methylsulfonyl)phenyl)amino)-2,6-naphthyridin-1-yl)ethynyl) phthalazin-1(2H)-one]

- IC50 (CDK4/CCND3; 1.5 nM CDK4/CCND3, 1 mM ATP, read-out: CDK4/CCND IC50 >250 nM): > 250 nM
- IC50 (CDK6/CCND1; 1 nM CDK6/CCND1, 1 mM ATP, read-out: CDK6/CCND IC50 >250 nM): > 250 nM
- IC50 (CDK1/CCNB1; 0.5 nM CDK1/CCNB1, 1 mM ATP, read-out: CDK1/CCNB IC50 >250 nM): > 250 nM
- IC50 (CDK2/CCNE1; 3 nM CDK2/CCNE1, 1 mM ATP, read-out: CDK2/CCNE IC50 >250 nM): > 250 nM
SMILES: CS(=O)(=O)c1ccc(Nc2cc3c(N4CCC(C#N)CC4)c(C#N)cnc3cn2)cc1 [Example 953, 4-(4-cyanopiperidin-1-yl)-6-((4-(methylsulfonyl)phenyl)amino)-1,7-naphthyridine-3-carbonitrile]
